Assay results published in patent US6737383B1, “Herbicidal oxadiazolidines” (priority 1999, dated 2004).

Assays:
[1] = system: rape; assay: Test B pre/postemergence rape; assay type: in vivo, Brassica napus
In short: (§1)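 Herbicidal effect was estimated by eye on a ten-point control scale after plants spent twelve to sixteen days in a greenhouse following soil or foliar treatment. Foliar sprays targeted plants at one to four leaves; all doses were formulated in a non-phytotoxic solvent with surfactant.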

[2] = system: sugar beet; assay: Test B pre/postemergence sugar beet; assay type: in vivo, Beta vulgaris
In short: as §1

[3] = system: wild oat; assay: Test B pre/postemergence wild oat; assay type: in vivo, Avena fatua
In short: as §1

[4] = system: pigweed; assay: Test B pre/postemergence pigweed; assay type: in vivo, Amaranthus retroflexus
In short: as §1

[5] = system: bamyardgrass; assay: Test B flood test barnyardgrass; assay type: in vivo, Echinochloa crus-galli; conditions: Pre-emergence
In short: (§2)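 Flood test on plants grown to the 2-leaf stage; treated plants kept in greenhouse twelve to sixteen days, then visually rated against controls on a 0 (no effect) to 10 (complete control) scale.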

[6] = system: blackgrass; assay: Test B pre/postemergence blackgrass; assay type: in vivo, Alopecurus myosuroides
In short: as §1

[7] = system: wheat; assay: Test B pre/postemergence wheat; assay type: in vivo, Triticum aestivum
In short: as §1

[8] = system: smallflower flatsedge; assay: Test B flood test smallflower flatsedge; assay type: in vivo, Cyperus difformis; conditions: Pre-emergence
In short: as §2

[9] = system: morningglory; assay: Test B pre/postemergence morningglory; assay type: in vivo, Ipomoea hederacea
In short: as §1

[10] = system: giant foxtail; assay: Test B pre/postemergence giant foxtail; assay type: in vivo, Setaria faberii
In short: as §1

[11] = system: surinam grass; assay: Test B pre/postemergence surinam grass; assay type: in vivo, Brachiaria decumbens
In short: as §1

[12] = system: bedstraw; assay: Test B pre/postemergence bedstraw; assay type: in vivo, Galium aparine
In short: as §1

[13] = system: purple nutsedge; assay: Test B pre/postemergence purple nutsedge; assay type: in vivo, Cyperus rotundus
In short: as §1

[14] = system: corn; assay: Test B pre/postemergence corn; assay type: in vivo, Zea mays
In short: as §1

[15] = system: rice; assay: Test B flood test rice; assay type: in vivo, Oryza sativa; conditions: Pre-emergence
In short: as §2

[16] = system: crabgrass; assay: Test B pre/postemergence crabgrass; assay type: in vivo, Digitaria sanguinalis
In short: as §1

[17] = Preemergence, Rate 62 g/ha, scale of 0 to 10 where 0 is no effect and 10 is complete control
[18] = Preemergence, Rate 250 g/ha, scale of 0 to 10 where 0 is no effect and 10 is complete control
[19] = Preemergence, Rate 500 g/ha, scale of 0 to 10 where 0 is no effect and 10 is complete control
[20] = Rate 62 g/ha, Postemergence, scale 0 to 10 (0 no effect, 10 complete control)
[21] = Rate 125 g/ha, Postemergence, scale of 0 to 10 where 0 is no effect and 10 is complete control
[22] = Rate 250 g/ha, Postemergence, scale of 0 to 10 where 0 is no effect and 10 is complete control
[23] = Rate 1000 g/ha, scale 0 to 10 (0 no effect, 10 complete control)
[24] = Rate 125 g/ha, flood test species, scale 0 to 10 where 0 is no effect and 10 is complete control
[25] = Rate 250 g/ha, flood-test species, scale 0 to 10, 0 is no effect, 10 is complete control
[26] = Rate 500 g/ha, flood test species, scale 0 to 10 (0 no effect, 10 complete control)
[27] = Rate 500 g/ha, Postemergence, scale 0 to 10, 0 no effect, 10 complete control

Structure (SMILES): COC(Cn1c(=O)on(C(=O)N(c2ccc(F)cc2)C(C)C)c1=O)OC [Compound 317]
- Rape plant response rating [1, 17]: 0
- Rape plant response rating (0 to 10 scale) ([1]; Preemergence, Rate 125 g/ha): 2
- Rape plant response rating [1, 18]: 8
- Rape plant response rating [1, 19]: 10
- Rape plant response rating [1, 20]: 0
- Rape plant response rating [1, 21]: 0
- Plant response rating, Rape [1, 22]: 1
- Sugarbeets plant response rating [2, 17]: 1
- Sugarbeets plant response rating (0 to 10 scale) ([2]; Preemergence, Rate 125 g/ha): 4
- Sugarbeets plant response rating [2, 18]: 7
- Sugarbeets plant response rating [2, 19]: 8
- Sugarbeets plant response rating [2, 20]: 0
- Sugarbeets plant response rating [2, 21]: 0
- Plant response rating, Sugarbeets [2, 22]: 1
- Wild oats plant response rating [3, 17]: 5
- Wild oats plant response rating (0 to 10 scale) ([3]; Preemergence, Rate 125 g/ha): 8
- Wild oats plant response rating [3, 18]: 8
- Wild oats plant response rating [3, 19]: 10
- Wild oats plant response rating [3, 20]: 0
- Wild oats plant response rating [3, 21]: 0
- Plant response rating, Wild oats [3, 22]: 0
- Redroot pigweed plant response rating [4, 17]: 2
- Redroot pigweed plant response rating (0 to 10 scale) ([4]; Preemergence, Rate 125 g/ha): 7
- Redroot pigweed plant response rating [4, 18]: 7
- Redroot pigweed plant response rating [4, 19]: 10
- Redroot pigweed plant response rating [4, 20]: 0
- Redroot pigweed plant response rating [4, 21]: 0
- Plant response rating, Redroot pigweed [4, 22]: 3
- Barnyardgrass plant response rating [5, 23]: 0
- Barnyardgrass plant response rating [5, 24]: 0
- Barnyardgrass plant response rating [5, 25]: 0
- Barnyardgrass plant response rating [5, 26]: 0
- Blackgrass plant response rating [6, 17]: 3
- Blackgrass plant response rating (0 to 10 scale) ([6]; Preemergence, Rate 125 g/ha): 8
- Blackgrass plant response rating [6, 18]: 8
- Blackgrass plant response rating [6, 19]: 10
- Blackgrass plant response rating [6, 20]: 8
- Blackgrass plant response rating [6, 21]: 8
- Plant response rating, Blackgrass [6, 22]: 8
- Blackgrass plant response rating [6, 27]: 9
- Wheat plant response rating [7, 17]: 1
- Wheat plant response rating (0 to 10 scale) ([7]; Preemergence, Rate 125 g/ha): 2
- Wheat plant response rating [7, 18]: 7
- Wheat plant response rating [7, 19]: 8
- Wheat plant response rating [7, 20]: 0
- Wheat plant response rating [7, 21]: 1
- Plant response rating, Wheat [7, 22]: 5
- S. Flatsedge plant response rating [8, 23]: 0
- S. Flatsedge plant response rating [8, 24]: 0
- S. Flatsedge plant response rating [8, 25]: 0
- S. Flatsedge plant response rating [8, 26]: 0
- Morningglory plant response rating [9, 17]: 0
- Morningglory plant response rating (0 to 10 scale) ([9]; Preemergence, Rate 125 g/ha): 0
- Morningglory plant response rating [9, 18]: 0
- Morningglory plant response rating [9, 19]: 0
- Morningglory plant response rating [9, 20]: 1
- Morningglory plant response rating [9, 21]: 3
- Plant response rating, Morningglory [9, 22]: 3
- Giant foxtail plant response rating [10, 17]: 9
- Giant foxtail plant response rating (0 to 10 scale) ([10]; Preemergence, Rate 125 g/ha): 10
- Giant foxtail plant response rating [10, 18]: 10
- Giant foxtail plant response rating [10, 19]: 10
- Giant foxtail plant response rating [10, 20]: 5
- Giant foxtail plant response rating [10, 21]: 5
- Plant response rating, Giant foxtail [10, 22]: 8
- B. signalgrass plant response rating [11, 17]: 5
- B. signalgrass plant response rating (0 to 10 scale, 0 is no effect, 10 is complete control) ([11]; Preemergence, Rate 125 g/ha): 6
- B. signalgrass plant response rating [11, 18]: 7
- B. signalgrass plant response rating [11, 19]: 8
- B. signalgrass plant response rating [11, 20]: 0
- B. signalgrass plant response rating [11, 21]: 1
- Plant response rating, B. signalgrass [11, 22]: 7
- B. signalgrass plant response rating [11, 27]: 8
- Bedstraw plant response rating [12, 17]: 0
- Bedstraw plant response rating [12, 20]: 2
- Bedstraw plant response rating [12, 21]: 6
- Plant response rating, Bedstraw [12, 22]: 8
- Nutsedge plant response rating [13, 17]: 0
- Nutsedge plant response rating [13, 18]: 0
- Nutsedge plant response rating [13, 19]: 0
- Nutsedge plant response rating [13, 20]: 0
- Nutsedge plant response rating [13, 21]: 0
- Plant response rating, Nutsedge [13, 22]: 0
- Corn plant response rating [14, 17]: 0
- Corn plant response rating (0 to 10 scale) ([14]; Preemergence, Rate 125 g/ha): 2
- Corn plant response rating [14, 19]: 5
- Corn plant response rating [14, 20]: 0
- Corn plant response rating [14, 21]: 0
- Plant response rating, Corn [14, 22]: 2
- Corn plant response rating [14, 27]: 3
- Rice plant response rating [15, 23]: 0
- Rice plant response rating [15, 24]: 0
- Rice plant response rating [15, 25]: 0
- Rice plant response rating [15, 26]: 0
- Crabgrass plant response rating [16, 17]: 6
- Crabgrass plant response rating (0 to 10 scale) ([16]; Preemergence, Rate 125 g/ha): 7
- Crabgrass plant response rating [16, 18]: 8
- Crabgrass plant response rating [16, 19]: 8
- Crabgrass plant response rating [16, 20]: 2
- Crabgrass plant response rating [16, 21]: 5
- Plant response rating, Crabgrass [16, 22]: 8
